These results are taken from patent US20120065187A1 (ALCON RESEARCH, LTD, priority 2008, published 2012).

For orientation: pEC50 means −log10 of the EC50, conventionally taken in molar units.

pEC50: −log10 of the molar value. Where a name gives a salt, the structure may show the parent alone.

One assay has as its target T1, human H1 (Homo sapiens, UniProt P35367).
T1 construct: host or cells: CHO-K1
In words: In vitro histamine receptor cell-based assay (aequorin bioluminescence), H1 antagonism. The conditions noted are these: CHO-K1 cells expressing human H1 and aequorin; histamine at EC80; read-out: H1 Antagonist EC50. In short, it runs like this:
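Stable CHO-K1 lines expressing human H1 or H4 (H4 with Gα16) plus mitochondrial aequorin, loaded 4 h with 5 μM coelenterazine-h at ~21 °C. Compounds preincubated 15 min, then histamine at EC80 added; bioluminescence decrease (AUC or max–min) expressed as % of positive control (diphenhydramine for H1, JNJ7777120 for H4, 10 μM).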

The next assay concerns the target T2, human H4 (Homo sapiens, UniProt Q9H3N8).
T2 construct: host or cells: CHO-K1
In words: In vitro histamine receptor cell-based assay (aequorin bioluminescence), H4 antagonism. As to conditions: CHO-K1 cells expressing human H4, aequorin and Gα16; histamine at EC80; read-out: H4 Antagonist EC50. An outline of the steps:
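CHO-K1 cells stably expressing human H4, Gα16 and mitochondrial aequorin, loaded with 5 μM coelenterazine-h, preincubated 15 min at room temperature with compound, then challenged with histamine at EC80.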

T2 sequence (Q9H3N8 whole entry): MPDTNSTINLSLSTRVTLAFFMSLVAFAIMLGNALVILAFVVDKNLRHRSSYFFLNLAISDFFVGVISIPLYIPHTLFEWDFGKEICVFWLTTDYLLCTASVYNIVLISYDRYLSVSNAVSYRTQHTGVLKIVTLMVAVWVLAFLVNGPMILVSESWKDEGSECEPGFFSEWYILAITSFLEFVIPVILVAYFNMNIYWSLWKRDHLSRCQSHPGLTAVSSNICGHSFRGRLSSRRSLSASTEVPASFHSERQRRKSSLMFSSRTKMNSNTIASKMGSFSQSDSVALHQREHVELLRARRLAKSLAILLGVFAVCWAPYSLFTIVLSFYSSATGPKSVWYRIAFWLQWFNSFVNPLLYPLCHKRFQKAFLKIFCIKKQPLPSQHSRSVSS
T1 sequence (P35367 whole entry): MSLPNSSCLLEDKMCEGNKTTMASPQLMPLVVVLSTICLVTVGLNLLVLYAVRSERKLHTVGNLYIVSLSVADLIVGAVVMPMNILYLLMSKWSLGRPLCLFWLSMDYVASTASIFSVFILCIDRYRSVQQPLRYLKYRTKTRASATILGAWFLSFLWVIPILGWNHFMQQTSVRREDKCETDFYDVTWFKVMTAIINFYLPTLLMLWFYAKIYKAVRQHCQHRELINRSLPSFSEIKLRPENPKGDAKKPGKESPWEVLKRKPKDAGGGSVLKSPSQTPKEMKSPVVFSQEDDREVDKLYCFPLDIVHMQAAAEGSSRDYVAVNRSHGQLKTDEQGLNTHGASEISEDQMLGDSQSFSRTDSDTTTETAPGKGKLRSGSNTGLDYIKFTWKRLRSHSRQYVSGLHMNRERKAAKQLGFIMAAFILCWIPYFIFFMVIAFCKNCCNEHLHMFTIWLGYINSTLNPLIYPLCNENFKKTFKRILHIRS

With `CCc1nc2c3cc(Cl)ccc3nc(N3CCNCC3)n2n1` [Example 115, 9-Chloro-2-ethyl-5-(piperazin-1-yl)-[1,2,4]triazolo[1,5-c]quinazoline], the values for the pEC50 on human H1 and on human H4 were under 5.00 and over 5.00, respectively.

For the compound `CC(C)c1nc2c3cc(Cl)ccc3nc(N3CCN(C)CC3)n2n1` [Example 116, 9-Chloro-2-isopropyl-5-(4-methylpiperazin-1-yl)-[1,2,4]triazolo[1,5-c]quinazoline], the pEC50 at human H1 and at human H4 was under 5.00 each time.

Turning to `CC(C)c1nc2c3cc(Cl)ccc3nc(N3CCNCC3)n2n1` [Example 117, 9-Chloro-2-isopropyl-5-(piperazin-1-yl)-[1,2,4]triazolo[1,5-c]quinazoline], the pEC50 at human H1 and on human H4 was under 5.00 each time.

On to `CN1CCN(c2nc3ccc(Cl)cc3c3nc(Cc4ccccc4)nn23)CC1` [Example 118, 2-Benzyl-9-chloro-5-(4-methylpiperazin-1-yl)-[1,2,4]triazolo[1,5-c]quinazoline], for which the pEC50 at human H1 and at human H4 was under 5.00 each time.

As to `Clc1ccc2nc(N3CCNCC3)n3nc(Cc4ccccc4)nc3c2c1` [Example 119, 2-Benzyl-9-chloro-5-(piperazin-1-yl)-[1,2,4]triazolo[1,5-c]quinazoline], the pEC50 on human H1 and at human H4 was under 5.00 in each case.

Consider `CN1CCN(c2nc3ccc(C(F)(F)F)cc3c3nc(C(F)(F)F)nn23)CC1` [Example 120, 5-(4-methylpiperazin-1-yl)-2,9-bis(trifluoromethyl)-[1,2,4]triazolo[1,5-c]quinazoline], for which the pEC50 was under 5.00 on human H1 and over 5.00 at human H4.

As to `FC(F)(F)c1ccc2nc(N3CCNCC3)n3nc(C(F)(F)F)nc3c2c1` [Example 121, 5-(piperazin-1-yl)-2,9-bis(trifluoromethyl)-[1,2,4]triazolo[1,5-c]quinazoline], the pEC50 at human H1 and on human H4 was under 5.00 each time.

On to `Cc1nc2c3cc(C(F)(F)F)c(Cl)cc3nc(N3CCN(C)CC3)n2n1` [Example 122, 8-chloro-2-methyl-5-(4-methylpiperazin-1-yl)-9-(trifluoromethyl)-[1,2,4]triazolo[1,5-c]quinazoline], for which the negative logarithm of the EC50 (pEC50) at human H1 is under 5.00; on human H4 it was over 5.00.

On to `Cc1nc2c3cc(C(F)(F)F)c(Cl)cc3nc(N3CCNCC3)n2n1` [Example 123, 8-chloro-2-methyl-5-(piperazin-1-yl)-9-(trifluoromethyl)-[1,2,4]triazolo[1,5-c]quinazoline], for which the negative logarithm of the EC50 (pEC50) on human H1 is under 5.00; on human H4, over 5.00.

As for `Cc1nc2c3cc(C(F)(F)F)cc(F)c3nc(N3CCNCC3)n2n1` [Example 128, 7-fluoro-2-methyl-5-(piperazin-1-yl)-9-(trifluoromethyl)-[1,2,4]triazolo[1,5-c]quinazoline hydrochloride], the pEC50 on human H1 is under 5.00; on human H4 it was over 5.00.

Regarding `Cc1nc2c3cc(F)c(C(F)(F)F)cc3nc(N3CCNCC3)n2n1` [Example 130, 9-fluoro-2-methyl-5-(piperazin-1-yl)-8-(trifluoromethyl)-[1,2,4]triazolo[1,5-c]quinazoline hydrochloride], the pEC50 was under 5.00 on human H1 and over 5.00 at human H4.

As to `Cc1nc2c3cc(Cl)c(C(F)(F)F)cc3nc(N3CCN(C)CC3)n2n1` [Example 131, 9-chloro-2-methyl-5-(4-methylpiperazin-1-yl)-8-(trifluoromethyl)-[1,2,4]triazolo[1,5-c]quinazoline hydrochloride], the pEC50 was under 5.00 at human H1 and over 5.00 at human H4.

As to `Cc1nc2c3cc(Cl)c(C(F)(F)F)cc3nc(N3CCNCC3)n2n1` [Example 132, 9-chloro-2-methyl-5-(piperazin-1-yl)-8-(trifluoromethyl)-[1,2,4]triazolo[1,5-c]quinazoline hydrochloride], the pEC50 on human H1 was under 5.00; on human H4, over 5.00.

Regarding `Cc1nc2c3cc(OC(F)(F)F)ccc3nc(N3CCNCC3)n2n1` [Example 134, 2-methyl-5-(piperazin-1-yl)-9-(trifluoromethoxy)-[1,2,4]triazolo[1,5-c]quinazoline hydrochloride], the pEC50 was under 5.00 on human H1 and over 5.00 at human H4.

Take `Cc1nc2c3cc(Br)ccc3nc(N3CCN(C)CC3)n2n1` [Example 135, 9-bromo-2-methyl-5-(4-methylpiperazin-1-yl)-[1,2,4]triazolo[1,5-c]quinazoline]: the pEC50 on human H1 and at human H4 was over 5.00 throughout.

Regarding `C=Cc1ccc2nc(N3CCN(C)CC3)n3nc(C)nc3c2c1` [Example 137, 2-methyl-5-(4-methylpiperazin-1-yl)-9-vinyl-[1,2,4]triazolo[1,5-c]quinazoline], the pEC50 on human H1 was under 5.00; at human H4 it was over 5.00.

For the compound `C=Cc1ccc2nc(N3CCNCC3)n3nc(C)nc3c2c1` [Example 138, 2-methyl-5-(piperazin-1-yl)-9-vinyl-[1,2,4]triazolo[1,5-c]quinazoline], the pEC50 at human H1 is under 5.00; at human H4, over 5.00.

As for `CCc1ccc2nc(N3CCN(C)CC3)n3nc(C)nc3c2c1` [Example 139, 9-ethyl-2-methyl-5-(4-methylpiperazin-1-yl)-[1,2,4]triazolo[1,5-c]quinazoline], the pEC50 on human H1 was under 5.00; at human H4 it was over 5.00.

Consider `CCc1ccc2nc(N3CCNCC3)n3nc(C)nc3c2c1` [Example 140, 9-ethyl-2-methyl-5-(piperazin-1-yl)-[1,2,4]triazolo[1,5-c]quinazoline], for which the pEC50 on human H1 is under 5.00; on human H4, over 5.00.

For the compound `CN1CCN(c2nc3ccc(Cl)cc3c3ocnc23)CC1` [Example 141, 8-chloro-4-(4-methylpiperazin-1-yl)oxazolo[4,5-c]quinoline], the pEC50 at human H1 and on human H4 was over 5.00 in each case.

`Clc1ccc2nc(N3CCNCC3)c3ncoc3c2c1` [Example 142, 8-Chloro-4-piperazinyl-1,3-oxazolo[4,5-c]quinoline]: the pEC50 is under 5.00 on human H1 and over 5.00 on human H4.

With `Cc1nc2c(N3CCNCC3)nc3ccc(Cl)cc3c2o1` [Example 144, 8-chloro-2-methyl-4-(piperazin-1-yl)oxazolo[4,5-c]quinoline], the figures for the pEC50 on human H1 and on human H4 were under 5.00 and over 5.00, respectively.

As to `Cc1nc2c(N3CCNCC3)nc3cc(F)c(F)cc3c2o1` [Example 146, 7,8-difluoro-2-methyl-4-(piperazin-1-yl)oxazolo[4,5-c]quinoline], the pEC50 on human H1 and on human H4 was over 5.00 throughout.

Consider `CN1CCN(c2nc3ccc(Cl)cc3c3ccoc23)CC1` [Example 147, 8-Chloro-4-(4-methylpiperazin-1-yl)furo[2,3-c]quinoline], for which the pEC50 at human H1 was under 5.00; at human H4, over 5.00.

Turning to `Clc1ccc2nc(N3CCNCC3)c3occc3c2c1` [Example 148, 8-Chloro-4-(piperazin-1-yl)furo[2,3-c]quinoline], the results for the pEC50 on human H1 and on human H4 were under 5.00 and over 5.00, respectively.

On to `CN1CCN(c2nc3ccc(Cl)cc3c3ccsc23)CC1` [Example 149, 8-Chloro-4-(4-methylpiperazin-1-yl)thieno[2,3-c]quinoline], for which the pEC50 at human H1 and at human H4 was over 5.00 in each case.

On to `Cn1cc2c(n1)c(N1CCNCC1)nc1ccc(Cl)cc12` [Example 151, 8-Chloro-2-methyl-4-(piperazin-1-yl)-2H-pyrazolo[3,4-c]quinoline], for which the pEC50 on human H1 and at human H4 was over 5.00 throughout.

As for `Cn1cc2c(n1)c(N1CC[N+](C)(C)CC1)nc1ccc(Cl)cc12` [Example 154, 4-(8-Chloro-2-methyl-2H-pyrazolo[3,4-c]quinolin-4-yl)-1,1-dimethylpiperazin-1-ium], the pEC50 at human H1 and at human H4 was under 5.00 in each case.

With `CN1CCN(c2nc3ccc(C(F)(F)F)cc3c3cn(C)nc23)CC1` [Example 155, 2-Methyl-4-(4-methylpiperazinyl)-8-(trifluoromethyl)pyrazolo[3,4-c]quinoline], the figures for the pEC50 at human H1 and on human H4 were under 5.00 and over 5.00, respectively.

Turning to `Cn1cc2c(n1)c(N1CCNCC1)nc1ccc(C(F)(F)F)cc12` [Example 156, 2-Methyl-4-piperazinyl-8-(trifluoromethyl)pyrazolo[3,4-c]quinoline HCl salt], the pEC50 on human H1 and on human H4 was over 5.00 each time.

`CN1CCN(c2nc3ccc(C(F)(F)F)cc3c3c[nH]nc23)CC1` [Example 157, 4-(4-Methylpiperazinyl)-8-(trifluoromethyl)pyrazolo[3,4-c]quinoline]: the pEC50 at human H1 is under 5.00; at human H4 it was over 5.00.

As to `Cn1cnc2c(N3CCNCC3)nc3ccc(Cl)cc3c21` [Example 158, 8-Chloro-1-methyl-4-(piperazin-1-yl)-1H-imidazo[4,5-c]quinoline], the pEC50 at human H1 and at human H4 was under 5.00 in each case.

Turning to `CN1CCN(c2nc3ccc(Cl)cc3c3c2ncn3C)CC1` [Example 159, 8-Chloro-1-methyl-4-(4-methylpiperazin-1-yl)-1H-imidazo[4,5-c]quinoline], the figures for the pEC50 on human H1 and at human H4 were under 5.00 and over 5.00, respectively.

On to `Cc1nc2c(N3CCN(C)CC3)nc3ccc(Cl)cc3c2[nH]1` [Example 162, 8-Chloro-2-methyl-4-(4-methylpiperazinyl)imidazo[4,5-c]quinoline], for which the pEC50 on human H1 and at human H4 was under 5.00 throughout.

Consider `Cc1nc2c(N3CCNCC3)nc3ccc(Cl)cc3c2[nH]1` [Example 163, 8-Chloro-2-methyl-4-piperazinylimidazo[4,5-c]quinoline], for which the pEC50 on human H1 and at human H4 was under 5.00 throughout.
